Source: patent US8642656B2, “Calixarene-based peptide conformation mimetics, methods of use, and methods of making” (priority 2004, dated 2014)
“Also recorded” adds a separate entry of the source. Like-named read-outs stand apart in the source and are kept apart here. Ends that are not written are not given here.

Assays:
LPS from E. coli 055:B5 = assay: Endotoxemia study in mice, lethal dose of E. coli 055:B5 LPS; assay type: in vivo; conditions: E. coli 055:B5 LPS 600 μg; 5 mg/kg
Method: In three separate studies, these compounds were tested against LPS derived from E. coli serotype 0111:B4, E. coli serotype 055:B5 LPS, and Salmonella. The compounds (in a final concentration of 2% DMSO v/v), were first mixed individually with LPS, and incubated for 30 minutes prior to i.p. injection into C57/BL6 mice (n=4-8/group). The control mice were treated with DMSO (2% v/v) alone. Each mouse received a lethal dose of LPS, with or without one of the compounds.
(§1) J Bacteriol 93, 1463-4 (1967)). Mice were provided food and water as usual ad libitum, and monitored for several days. When it was observed that mice were in distress and death was imminent, animals were sacrificed; in some cases, mice expired during the night and were found dead the following morning. Data are plotted as the number of surviving mice versus lime in hours. Statistical analysis was performed on the average amount of survival time per group with a maximum or 120 hours (surviving mice) by using the Student's t-test.

[1] = test system: LPS from E. coli serotype 0111:B4; assay: LPS neutralization assay (Limulus amoebocyte lysate, QCL-1000); assay type: biochemical; conditions: read-out: IC50 values (μM) for LPS binding, E. coli 0111:B4
Method in brief: (§2)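 Absorbance at 405-410 nm tracks pNA released from a synthetic substrate by LPS-activated lysate enzyme. Compounds were titrated against 0.04 units of each LPS. IC50 values derive from sigmoidal curve fitting.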

[2] = test system: LPS from E. coli serotype 055:B5; assay: as above; assay type: biochemical
Method in brief: (§3)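 Neutralization of endotoxin was measured as loss of LAL proenzyme activation driven by 0.04 units LPS, read as pNA at 405-410 nm; IC50 from sigmoidal fit.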

LPS from S. typhimurium = assay: as above; assay type: biochemical, Salmonella typhimurium; conditions: read-out: IC50 values (μM) for LPS binding, Salmonella
Method in brief: as §2

LPS from K. pneumoniae = assay: as above; assay type: biochemical, Klebsiella pneumoniae; conditions: read-out: IC50 values (μM) for LPS binding, Klebsiella
Method in brief: as §3

[3] = Acute toxicity observed in the endotoxemia model; assay type: in vivo, mice; conditions: i.p., single dose of 50 mg/kg, together with LPS
Method: as §1, with “C57 male black mice were injected i.p. with a solution that contained a lethal dose of LPS [600 μg of LPS from E. coli 055:B5 and Salmonella, and 500 μg of LPS from […]] and 1.25 mg of the lopomimetic compound (a dose of 50 mg/kg) (Rifkind, D. J” for “J”

LPS from P. aeruginosa = assay: LPS neutralization assay (Limulus amoebocyte lysate, QCL-1000); assay type: biochemical, Pseudomonas aeruginosa; conditions: read-out: IC50 values (μM) for LPS binding, P.a.
Method in brief: as §2

LPS from S. marcascens = assay: as above; assay type: biochemical, Serratia marcascens; conditions: read-out: IC50 values (μM) for LPS binding, Serratia
Method in brief: as §2

[4] = test system: LPS from six species of bacteria; assay: LPS neutralization assay, overall statements; assay type: biochemical; conditions: library of 23 compounds
Description: The ability of compounds to neutralize endotoxin was detected in vitro by using the chromogenic QCL-1000 kit from BioWhittaker, Inc. (Walkersville, Md.), and as described in their protocol. This Limulus amoebocyte lysate (LAL) assay is quantitative for Gram negative bacterial endotoxin (lipopolysaccharide, LPS). In this assay compounds that are active inhibit the LPS-mediated activation of a proenzyme whose active form would release p-nitroaniline (pNA) from a colorless synthetic substrate producing a yellow color (pNA) whose absorption is monitored spectrophotometrically at 405-410 nm. The initial rate of enzyme activation is proportional to the concentration of endotoxin present.
Variants of LPS from six Gram negative bacteria were used: E. coli serotypes 0111:B4 (Combrex, Walkersville, Md.) and 055:B5 (Sigma, St. Louis, Mo.); Klebsiella pneumoniae (List Biologies, San Jose, Calif.); Pseudomonas aeruginosa (List Biologies, San Jose, Calif.); Salmonella typhimurium (List Biologies, San Jose, Calif.), and Serratia marcascens (List Biologies, San Jose, Calif.). The concentration of compound required to neutralize a given LPS and therefore to inhibit the Limulus amoebocyte lysate driven by 0.04 units of any given LPS was determined by dose response curves fit by using a standard sigmoidal function to determined the JC50 value for each lopomimetic compound. […]

[5] = Toxicity assays in tumor-bearing mice: behavior, body weight, organ morphology; assay type: in vivo; conditions: all in vivo tumor experiments
Method: (§4) As an indirect measurement of general toxicity, body weights of mice were monitored twice weekly, using a digital balance (Ohaus Florham, N.J.). To determine hematocrit levels, blood samples were extracted by tail vein bleedings one day after terminating treatment, and blood was collected in heparinized micro-hematocrit capillary lubes (Fisher Pittsburgh, Pa.). Samples were spun down for 10 minutes in a micro-hematocrit centrifuge (Clay-Adams; NY), and the amount of hematocrit was determined using an international microcapillary reader (IEC; Needham, Mass.).

B16F10 tumor vessels = assay: Histological analysis of microvessel density, anti-CD31 staining, B16F10 tumors; assay type: in vivo, mice; conditions: B16F10, 10 mg/kg; mean ± standard error, 20 images
Method: (§5) Immunohistochemistry was used to assess microvessel density and the extent of total cell apoptosis. Approximately, tumors of the same size and with no apparent necrosis were selected for processing. On the last day of treatment mice were sacrificed and tumors were excised. Tumor tissue was embedded in tissue freezing medium (Miles Inc, Elkart, Ind.) and shock frozen in liquid nitrogen. Sections of tissue (10 μm thickness) were prepared for immunohistochemical analysis. For this, tissue sections were brought to room temperature, air dried overnight, and then fixed in acetone for 10 minutes. Slides were allowed to air dry for at least 30 minutes and were washed three limes for 5 minutes each in phosphate-buffered saline (PBS, pH 7.4). Samples were then blocked with PBS containing 0.1% bovine serum albumin and 3% human serum albumin for at least 30 minutes at room temperature in a humidified box. Samples were subsequently incubated with phycoerytrin (PE)-conjugated monoclonal antibody to CD31 (PECAM-1) in a 1:50 dilution (Pharmigen, San Diego, Calif.) to stain for microvessel density.
(§6) Digital images were stored and processed using Adobe Photoshop (Adobe Inc., Mountain View Calif.). Quantification of microvessel density, were determined as described previously (Dings et al., Cancer Res 63, 382-385 (2003)). Statistical analysis was performed using the Student's t-test.

[6] = test system: MA148 human ovarian carcinoma; conditions: 10 mg/kg/day; Dings et al., Cancer Lett 194; cited from earlier work
B16F10 tumor cells = assay: Proliferation of B16F10 tumor cells; assay type: cell-based, murine
MA148 tumor vessels = assay: Histological analysis of microvessel density, anti-CD31 staining, MA148 tumors; assay type: in vivo, mice; conditions: MA148, 10 mg/kg; mean ± standard error, 20 images
Method: as §5, §6

B16F10 tumor = assay: TUNEL staining for total cell apoptosis, B16F10 tumors; assay type: in vivo, mice; conditions: B16F10, 10 mg/kg; mean ± standard error, 20 images
Method: (§7) To assess the extent of total cell apoptosis, tumor tissue sections were stained by using the TUNEL (terminal deoxyribonucleotidyl transferase-mediated dUTP-nick-end labeling) assay, which was performed according to the manufacturer's instructions (In situ cell death detection kit, fluorescein; TUNEL, Roche). After 1-hour incubation at room temperature, slides were washed with PBS and immediately imaged using an Olympus BX-60 fluorescence microscope at 200× magnification.

fibroblasts = assay: Proliferation of fibroblasts (general cell toxicity check); assay type: cell-based
MA148 tumor = assay: TUNEL staining for total cell apoptosis, MA148 tumors; assay type: in vivo, mice; conditions: MA148, 10 mg/kg; mean ± standard error, 20 images
Method: as §7

[7] = Hematocrit levels, study with B16 tumors in immune competent mice; assay type: in vivo; conditions: vehicle 51±1.4
Method: as §4

[8] = Hematocrit levels, first (MA148) study; assay type: in vivo, mice; conditions: 10 mg/kg; last day of treatment; vehicle 47±5.7
Method: as §4

[9] = Table 2, read-out: IC50 values (μM) for LPS binding, E. coli 055:B4
[10] = Table 3, errors estimated ±30%, read-out: IC50 values (μM) for LPS binding, E. coli 055:B5

5,11,17,23-Tetra-tert-butyl-25,26,27,28-tetrakis(4-guanidinobutoxy) calix[4]arene trifloroacetic acid salt [Compound 42]
survival of LPS-challenged mice (LPS from E. coli 055:B5): ineffective
IC50 ([1]; Table 2): 0.7 µM
IC50 ([1]; Table 3, errors estimated ±30%): 0.7 µM
IC50 [2, 9]: 0.04 µM
IC50 [2, 10]: 0.04 µM
IC50 (LPS from S. typhimurium; Table 2): 0.6 µM
IC50 (LPS from S. typhimurium; Table 3, errors estimated ±30%): 0.6 µM
IC50 (LPS from K. pneumoniae; Table 2): 1 µM
IC50 (LPS from K. pneumoniae; Table 3, errors estimated ±30%): 1 µM
sign of acute toxicity [3]: did not demonstrate any sign of acute toxicity
IC50 (LPS from P. aeruginosa; Table 2): 1.5 µM
IC50 (LPS from P. aeruginosa; Table 3, errors estimated ±30%): 1.5 µM
IC50 (LPS from S. marcascens; Table 2): > 5 µM
IC50 (LPS from S. marcascens; Table 3, errors estimated ±30%): > 5 µM
neutralizing LPS, ranking in words [4]: best LPS neutralizing compounds; also recorded: most effective for neutralizing LPS

ANIKLSVQMKLFKRHLKWKIIVKLNDGRELSLD [βpep-25, reference compound]
signs of toxicity (behavior, weight gain, hematocrit), in words [5]: did not generally show signs of toxicity
IC50 ([1]; Table 2): 2 µM
IC50 ([1]; Table 3, errors estimated ±30%): 2 µM
IC50 [2, 9]: 2.5 µM
IC50 [2, 10]: 2.5 µM
IC50 (LPS from S. typhimurium; Table 2): 2.5 µM
IC50 (LPS from S. typhimurium; Table 3, errors estimated ±30%): 2.5 µM
IC50 (LPS from K. pneumoniae; Table 2): 2 µM
IC50 (LPS from K. pneumoniae; Table 3, errors estimated ±30%): 2 µM
Branch Points (B16F10 tumor vessels): 4.5 ± 0.6 pixel counts per image
End Points (B16F10 tumor vessels): 31.9 ± 3.8 pixel counts per image
Vessel Density (B16F10 tumor vessels): 14050 ± 1826 pixel counts per image
Vessel Length (B16F10 tumor vessels): 10.2 ± 1.2 pixel counts per image
MA148 tumor inhibition shown previously [6]: 60 to 70%
IC50 against B16F10 tumor cells (B16F10 tumor cells): neither demonstrated activity
Branch Points (MA148 tumor vessels): 2.0 ± 0.5 pixel counts per image
End Points (MA148 tumor vessels): 16.6 ± 1.8 pixel counts per image
Vessel Density (MA148 tumor vessels): 7415 ± 686 pixel counts per image
Vessel Length (MA148 tumor vessels): 4.9 ± 0.6 pixel counts per image
Apoptosis (B16F10 tumor): 3303 ± 606 pixel counts per image
IC50 (LPS from P. aeruginosa; Table 2): 1.2 µM
IC50 (LPS from P. aeruginosa; Table 3, errors estimated ±30%): 1.2 µM
concentration giving 50% growth inhibition, fibroblasts (fibroblasts): no delectable effects
Apoptosis (MA148 tumor): 2418 ± 77 pixel counts per image
Hematocrit levels ±SD [7]: 52.5±3.5 percentage red blood cells
Hematocrit levels ±SD [8]: 47±2.8 percentage of red blood cells
IC50 (LPS from S. marcascens; Table 2): 4.1 µM
IC50 (LPS from S. marcascens; Table 3, errors estimated ±30%): 4.1 µM
